Test results from patent US20100331315A1, “RHODANINES AND RELATED HETEROCYCLES AS KINASE INHIBITORS” (priority 2009, published 2010).
Like-named read-outs stand apart in the source and are kept apart here.

Legend:
recombinant PIM-1 = recombinant PIM-1 (Homo sapiens, UniProt P11309); experiment: PIM-1 assay (33P-ATP filter plate); format: biochemical; conditions: read-out: PIM1: IC50
Description: The following procedure was used to assay the PIM-1 kinase activity of compounds of the invention. Other methods for assaying PIM-1 and other PIM kinases, as well as methods to assay for activity against the various kinases are known in the art.
In a final reaction volume of 50 ul, recombinant PIM-1 (1 ng) was incubated with 12 mM MOPS pH 7.0, 0.4 mM EDTA, glycerol 1%, brij 35 0.002%, 2-mercaptoethanol 0.02%, BSA 0.2 mg/ml, 100 uM KKRNRTLTK, 10 mM MgAcetate, 15 uM ATP, [γ-^33P-ATP] (specific activity approx. 500 cpm/pmol), DMSO 4% and test inhibitor compound at the required concentration. The reaction was initiated by the addition of the Magnesium ATP mixture. After 40 min incubation at 23° C., the reactions were quenched by the addition of 100 ul 0.75% Phosphoric acid, and the labeled peptide collected by filtration through a phosphocellulose filter plate. The plate was washed 4 times with 0.075% phosphoric acid (100 ul per well) and then, after the addition of scintillation fluid (20 ul per well), the counts were measured by a scintillation counter.

[1] = tested on: PC-3 human prostatic cancer cells; experiment: Alamar Blue cell proliferation assay, PC3; format: cell-based
Description: (§1) A representative cell-proliferation assay protocol using Alamar Blue dye (stored at 4° C., use 20 ul per well) is described hereafter.
(§2) a. Split and trypsinize cells.
(§3) b. Count cells using hemocytometer.
(§4) c. Plate 4,000-5,000 cells per well in 100 μl of medium and seed into a 96-well plate according to the following plate layout. Add cell culture medium only to wells B10 to B12. Wells B1 to B9 have cells but no compound added.
(§5) d. Add 100 μl of 2× drug dilution to each well in a concentration shown in the plate layout above. At the same time, add 100 μl of media into the control wells (wells B10 to B12). Total volume is 200 μl/well.
(§6) e. Incubate four (4) days at 37° C., 5% CO2 in a humidified incubator.
(§7) f. Add 20 μl Alamar Blue reagent to each well.
(§8) g. Incubate for four (4) hours at 37° C., 5% CO2 in a humidified incubator.
(§9) h. Record fluorescence at an excitation wavelength of 544 nm and emission wavelength of 590 nm using a microplate reader.
(§10) In the assays, cells are cultured with a test compound for approximately four days, the dye is then added to the cells and fluorescence of […] dye is detected after approximately four hours. Different types of cells can be utilized in the assays (e.g., HCT-116 human colorectal carcinoma cells, PC-3 human prostatic cancer cells and MiaPaca human pancreatic carcinoma cells).

recombinant human CK2 = molecular target: T1, recombinant human CK2 (Homo sapiens, UniProt P68400); experiment: CK2 assay (cell-free, 33P-ATP filter plate); format: biochemical
T1 construct: purchased Upstate
Description: Modulatory activity of compounds described herein was assessed in vitro in cell-free CK2 assays by the following method.
Test compounds in aqueous solution were added at a volume of 10 microliters, to a reaction mixture comprising 10 microliters Assay Dilution Buffer (ADB; 20 mM MOPS, pH 7.2, 25 mM beta-glycerolphosphate, 5 mM EGTA, 1 mM sodium orthovanadate and 1 mM dithiothreitol), 10 microliters of substrate peptide (RRRDDDSDDD, dissolved in ADB at a concentration of 1 mM), 10 microliters of recombinant human CK2 (25 ng dissolved in ADB; Upstate). Reactions were initiated by the addition of 10 microliters of ATP Solution (90% 75 mM MgCl2, 75 micromolar ATP dissolved in ADB; 10% [γ-^33P]ATP (stock 1 mCi/100 μl; 3000 Ci/mmol (Perkin Elmer) and maintained for 10 minutes at 30 degrees C. The reactions were quenched with 100 microliters of 0.75% phosphoric acid, then transferred to and filtered through a phosphocellulose filter plate (Millipore). After washing each well 5 times with 0.75% phosphoric acid, the plate was dried under vacuum for 5 min and, following the addition of 15 ul of scintillation fluid to each well, the residual radioactivity was measured using a Wallac luminescence counter.

MV-4-11 = experiment: Alamar Blue cell proliferation assay, MV-4-11; format: cell-based; conditions: Homo sapiens, MV4-11, MV-4-11, Table 1, read-out: AB: MV-4-11 IC50
Description: as §1, §2, §3, §4, §5, §6, §7, §8, §9, §10

MDAMB231 = experiment: Alamar Blue cell proliferation assay, MDAMB231; format: cell-based; conditions: Homo sapiens, MDA-MB-231, MDAMB231, Table 1, read-out: AB: MDAMB231 IC50
Description: as §1, §2, §3, §4, §5, §6, §7, §8, §9, §10

K-562 = experiment: Alamar Blue cell proliferation assay, K-562; format: cell-based; conditions: Homo sapiens
Description: as §1, §2, §3, §4, §5, §6, §7, §8, §9, §10

[2] = tested on: MiaPaca human pancreatic carcinoma cells; experiment: Alamar Blue cell proliferation assay, MiaPaCa; format: cell-based; conditions: MIA PaCa-2, Table 1, read-out: AB: MiaPaCa IC50
Description: as §1, §2, §3, §4, §5, §6, §7, §8, §9, §10

[3] = PC3, Table 4, read-out: AB: PC3 IC50
[4] = K562, K-562, Table 1, read-out: AB: K-562 IC50
[5] = PC-3, PC3, Table 1, read-out: AB: PC3
[6] = K562, K-562, Table 4, read-out: AB: K-562 IC50

Sequence of recombinant PIM-1 (P11309 whole entry): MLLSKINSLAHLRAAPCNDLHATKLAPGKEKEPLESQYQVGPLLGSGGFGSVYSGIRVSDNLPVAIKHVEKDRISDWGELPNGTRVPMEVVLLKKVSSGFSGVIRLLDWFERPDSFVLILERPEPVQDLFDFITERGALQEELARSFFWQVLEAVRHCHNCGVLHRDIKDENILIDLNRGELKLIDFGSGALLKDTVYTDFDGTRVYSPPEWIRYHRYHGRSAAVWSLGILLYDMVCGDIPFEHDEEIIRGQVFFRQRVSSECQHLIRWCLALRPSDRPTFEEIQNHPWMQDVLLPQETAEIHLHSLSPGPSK
T1 sequence (P68400 whole entry): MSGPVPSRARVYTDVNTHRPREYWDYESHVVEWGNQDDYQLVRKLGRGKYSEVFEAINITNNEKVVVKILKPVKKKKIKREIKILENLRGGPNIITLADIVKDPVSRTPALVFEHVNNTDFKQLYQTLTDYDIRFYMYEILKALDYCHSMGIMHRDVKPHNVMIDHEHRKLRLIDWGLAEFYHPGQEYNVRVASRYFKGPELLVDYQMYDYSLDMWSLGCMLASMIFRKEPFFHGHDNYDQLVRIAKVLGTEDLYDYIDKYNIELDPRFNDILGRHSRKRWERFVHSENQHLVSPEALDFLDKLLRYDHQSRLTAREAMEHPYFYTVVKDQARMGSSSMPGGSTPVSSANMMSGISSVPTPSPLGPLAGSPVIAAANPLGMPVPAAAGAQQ
T1 sequence (P67870 whole entry partner): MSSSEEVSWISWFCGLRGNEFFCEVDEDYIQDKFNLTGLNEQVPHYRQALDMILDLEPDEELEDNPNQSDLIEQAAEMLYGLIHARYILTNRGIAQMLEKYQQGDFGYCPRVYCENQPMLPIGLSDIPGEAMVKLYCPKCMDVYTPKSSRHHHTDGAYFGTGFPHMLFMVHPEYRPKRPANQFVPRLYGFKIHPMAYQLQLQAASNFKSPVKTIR

SMILES | IC50 (MDAMB231) | IC50 (K-562; [4]) | IC50 [2] | IC50 (recombinant PIM-1; Table 1) | IC50 [1, 5] | IC50 (recombinant human CK2; Table 1) | also measured
CN1CCCN(c2cncc(-c3ccc(/C=C4\SC(=S)NC4=O)o3)n2)CC1 |  |  |  |  |  |  | IC50 (recombinant PIM-1; Table 4): 141 nM; IC50 [1, 3]: > 10000 nM; IC50 (recombinant human CK2; Table 4): 18 nM
CCN(CC)CCNC(=O)c1ccc(Cl)c(-c2ccc(/C=C3\SC(=S)NC3=O)o2)c1 | > 10000 nM | 64 nM |  | < 1 nM | > 10000 nM | 3 nM | IC50 (MV-4-11): < 30 nM
O=C1NC(=O)/C(=C/c2ccc(-c3cccc(C(=O)O)c3)o2)S1 |  |  |  |  |  |  | IC50 (recombinant PIM-1; Table 2): > 5000 nM; IC50 (recombinant human CK2; Table 2): 117 nM
COCCNC(=O)c1ccc(Cl)c(-c2ccc(/C=C3\SC(=S)NC3=O)o2)c1 | > 10000 nM | 7620 nM | > 10000 nM | 3 nM | > 10000 nM | 10 nM | 
NS(=O)(=O)c1ccc(-c2ccc(/C=C3\NC(=O)NC3=O)o2)cc1 |  |  |  |  |  |  | IC50 (recombinant PIM-1; Table 3): 276 nM; IC50 (recombinant human CK2; Table 3): 458 nM
NS(=O)(=O)c1ccc(-c2ccc(/C=C3\SC(=S)NC3=O)o2)cc1 |  |  |  | 15 nM | > 10000 nM | 9 nM | 
CN1C(=O)NC(=O)/C1=C\c1ccc(-c2cccc(C(=O)O)c2)o1 |  |  |  |  |  |  | IC50 (recombinant PIM-1; Table 3): > 5000 nM; IC50 (recombinant human CK2; Table 3): 1460 nM
CCN1CCCC1CNC(=O)c1ccc(-c2ccc(/C=C3\SC(=S)NC3=O)o2)cc1 (stereo not shown) | > 10000 nM | > 10000 nM | 3950 nM | 28 nM | > 30000 nM |  | IC50 (MV-4-11): 210 nM
CN1CCCN(c2cncc(-c3ccc(/C=C4\NC(=O)NC4=O)o3)n2)CC1 |  |  |  |  |  |  | IC50 (recombinant PIM-1; Table 4): 1850 nM; IC50 (recombinant human CK2; Table 4): 229 nM
CN1CCCN(c2cncc(-c3cccc(/C=C4\SC(=S)NC4=O)c3)n2)CC1 |  |  |  |  |  |  | IC50 (K-562; [6]): < 30 nM; IC50 (recombinant PIM-1; Table 4): < 1 nM; IC50 [1, 3]: 3460 nM; IC50 (recombinant human CK2; Table 4): 1 nM
CN1CCCN(C(=O)c2cccc(-c3ccc(/C=C4/NC(=O)NC4=O)o3)c2)CC1 |  |  |  |  |  |  | IC50 (recombinant PIM-1; Table 3): > 5000 nM; IC50 (recombinant human CK2; Table 3): > 5000 nM
O=C1NC(=O)/C(=C\c2ccc(-c3cccc(C(=O)O)c3)o2)N1 |  |  |  |  |  |  | IC50 (recombinant PIM-1; Table 3): > 5000 nM; IC50 (recombinant human CK2; Table 3): 2060 nM
CN1CCCN(c2cncc(-c3ccc(/C=C4\SC(=O)NC4=O)o3)n2)CC1 |  |  |  |  |  |  | IC50 (K-562; [6]): 146 nM; IC50 (recombinant PIM-1; Table 4): 22 nM; IC50 [1, 3]: > 10000 nM; IC50 (recombinant human CK2; Table 4): 6 nM
O=C1NC(=O)/C(=C\c2ccc(-c3ccc(C(=O)O)cc3)o2)N1 |  |  |  |  |  |  | IC50 (recombinant PIM-1; Table 3): 805 nM; IC50 (recombinant human CK2; Table 3): 166 nM

The next lines start with results.

IC50 (MDAMB231) | IC50 (K-562; [4]) | IC50 [2] | IC50 (recombinant PIM-1; Table 1) | IC50 [1, 5] | IC50 (recombinant human CK2; Table 1) | SMILES | also measured
> 10000 nM | > 10000 nM | > 10000 nM | 64 nM | > 30000 nM |  | CN1CCN(C(=O)c2ccc(-c3ccc(/C=C4\SC(=S)NC4=O)o3)cc2)CC1 | IC50 (MV-4-11): > 10000 nM
> 10000 nM | > 10000 nM | > 10000 nM | 42 nM | > 10000 nM | 54 nM | COCCNC(=O)c1cc(-c2ccc(/C=C3\SC(=S)NC3=O)o2)ccc1Cl | 
> 10000 nM | > 10000 nM | > 10000 nM | 47 nM | > 30000 nM | 281 nM | O=C1NC(=S)S/C1=C\c1ccc(-c2cccc(C(=O)Nn3cnnc3)c2)o1 | 
> 10000 nM | > 10000 nM | > 10000 nM | 226 nM |  | 107 nM | O=C1NC(=S)S/C1=C\c1ccc(-c2ccc(Cl)c(C(=O)O)c2)o1 | IC50 (MV-4-11): > 10000 nM
